Molecular target: T1, KRAS G12C 1-169, his-tagged protein, GDP-loaded (Homo sapiens, UniProt P01116, G12C)
T1 construct: KRAS G12C 1-169, his-tagged protein, GDP-loaded
Experiment: Biochemical assay: covalent binding to KRAS G12C measured by mass spectrometry
Description: Test compounds are prepared as 10 mM stock solutions in DMSO (Fisher cat# BP-231-100). KRAS G12C 1-169, his-tagged protein, GDP-loaded is diluted to […] in buffer (20 mM Hepes, 150 mM NaCl, 1 mM MgCl2). Compounds are tested for activity as follows:
Compounds are diluted to 50× final test concentration in DMSO in 96-well storage plates. Compound stock solutions are vortexed before use and observed carefully for any sign of precipitation. Dilutions are as follow: • For 100 μM final compound concentration, compounds are diluted to 5000 μM (5 μl 10 mM compound stock +5 μl DMSO and mixed well by pipetting. • For 30 μM final compound concentration, compounds are diluted to 1500 μM (3 μl 10 mM compound stock +17 μl DMSO) and mixed well by pipetting. • For 10 μM final compound concentration, compounds are diluted to 500 μM (2 μl 10 mM compound stock +38 μl DMSO) and mixed well by pipetting. 49 μl of the stock protein solution is added to each well of a 96-well PCR plate (Fisher cat#1423027). […] of the diluted 50× compounds are added to appropriate wells in the PCR plate using 12-channel pipettor. Reactions are mixed carefully and thoroughly by pipetting up/down with a 200 μl multi-channel pipettor. The plate is sealed well with aluminum plate seal, and stored in drawer at room temperature for 24 hrs. 5 μl of 2% formic acid (Fisher cat# Al 117) in DI H2O is then added to each well followed by mixing with a pipette. The plate is then resealed with aluminum seal and stored on dry ice until analyzed as described below.
The above described assays are analyzed by mass spectrometry according to the following procedure:
The MS instrument is set to positive polarity, 2 GHz resolution, and low mass (1700) mode and allowed to equilibrate for 30 minutes. The instrument is then calibrated, switched to acquisition mode and the appropriate method loaded.
After another 30 minute equilibration time, a blank batch (i.e., buffer) is run to ensure equipment is operating properly. The samples are thawed at 37° C. for 10 minutes, briefly centrifuged, and transfer to the bench top. Wells Al and H12 are spiked with 1 uL 500 uM internal standard peptide, and the plates centrifuged at 2000×g for 5 minutes. The method is then run and masses of each individual well recorded.
The masses (for which integration data is desired) for each well are pasted into the platemap and exported from the analysis. Masses for the internal standards are exported as well. The data at 50 ppm is extracted for the +19 charge state, and identity of well Al is assigned using the internal standard spike and integrated. Peak data is exported as a TOF list and the above steps are repeated individually, for the +20, 21, 22, 23, 24, and 25 charge states.

T1 sequence (P01116 1-169 isoform P01116-2 G12C): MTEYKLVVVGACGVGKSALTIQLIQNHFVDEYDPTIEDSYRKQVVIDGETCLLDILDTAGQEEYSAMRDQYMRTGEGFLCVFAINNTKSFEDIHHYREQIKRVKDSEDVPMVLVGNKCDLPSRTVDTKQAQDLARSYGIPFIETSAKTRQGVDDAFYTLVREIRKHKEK

## C=CC(=O)N1CCN(c2c(NC(C)=O)nc3cc(-c4c(O)cccc4F)c(C)cn23)CC1 [Compound 24, N-(3-(40 acryloylpiperazin-1-yl)-7-(2-fluoro-6-hydroxyphenyl)-6-methylimidazo[1,2-a]pyridin-2-yl)acetamide]
  Binding %: + (+ indicates binding activity up to 5)

## C=CC(=O)N1CCN(c2cnc3cc(-c4c(C)ccc5[nH]ncc45)c(Cl)cn23)CC1 [Compound 1, 1-(4-(6-chloro-7-(5-methyl-1H-indazol-4-yl)imidazo[1,2-a]pyridin-3-yl)piperazin-1-yl)prop-2-en-1-one]
  Binding %: ++ (++ indicates binding activity greater than 5% and up to 50%)

## C=CC(=O)N1CCN(C2=COC3C=C(c4c(O)cccc4F)C(Cl)=CC23)CC1 (stereo not drawn) [Compound 26, 1-(4-(5-chloro-6-(2-fluoro-6-hydroxyphenyl)-3a,7a-dihydrobenzofuran-3-yl)piperazin-1-yl)prop-2-en-1-one]
  Binding %: +++ (+++ indicates binding activity 50% or greater)

## C=CC(=O)N1CCN(c2cnc3c(F)c(-c4c(O)cccc4F)c(Cl)cn23)CC1 [Compound 20, 1-(4-(6-chloro-8-fluoro-7-(2-fluoro-6-hydroxyphenyl)imidazo[1,2-a]pyridin-3-yl)piperazin-1-yl)prop-2-en-1-one]
  Binding %: +++ (+++ indicates binding activity 50% or greater)

## C=CC(=O)N1CCN(C2=NCC(=O)Nc3c2cc(Cl)c(-c2c(O)cccc2F)c3F)CC1 [Compound 25, 5-(4-acryloylpiperazin-1-yl)-7-chloro-9-fluoro-8-(2-fluoro-6-hydroxyphenyl)-1,3-dihydro-2H-benzo[e][1,4] diazepin-2-one]
  Binding %: + (+ indicates binding activity up to 5)

## C=CC(=O)N1CCN(c2c(NC(C)=O)nc3cc(-c4c(F)cccc4OC)c(Cl)cn23)CC1 [Compound 21, N-(3-(4-acryloylpiperazin-1-yl)-6-chloro-7-(2-fluoro-6-methoxyphenyl)imidazo[1,2-a]pyridin-2-yl)acetamide]
  Binding %: + (+ indicates binding activity up to 5)
